Laboratory results from paper PMC11415492 (Nature Communications, 2024).
“And” between values parts separate entries of the source, which are not always exact repeats. Equal entries are not always repeated. “Also recorded” adds a separate entry of the source. Structures can show the parent of a compound that is named as a salt.

How the values were obtained:
hKOR [1] = biological target: T1, hKOR (Homo sapiens, UniProt P41145); experiment: G protein activation BRET assay; format: cell-based; settings: for EC50: HEK-293T, (95% CI); for % effect at 100 µM: n = 4
T1 construct: expressed in transfected cells; host or cells: HEK-293T, transient (PEI)

hSERT = biological target: T2, hSERT (Homo sapiens, UniProt P31645); experiment: hSERT inhibition assay (APP+ fluorescence uptake); format: cell-based
T2 construct: expressed in transfected cells
Experimental: Stably transfected hSERT-HEK cellular cultures were maintained in Dulbecco’s Minimal Essential Medium (DMEM) with GlutaMAX (Gibco-Thermo Fisher Scientific, Waltham, MA) with the following additions: 10% (v/v) Fetal Bovine Serum (FBS, Atlanta Biologicals, Flowery Branch, GA), 100 U/mL Penicillin 10 μg/mL Streptomycin (Gibco-Thermo Fisher Scientific, Waltham, MA), and 500 μg/mL Geneticin (G418) (Sigma Aldrich, St. Louis, MO). Singly transfected cells were seeded at a density of 0.09 × 10^6 cells/well in poly-D-Lysine (Sigma Aldrich, St. Louis, MO) coated white solid-bottom 96-well plates (Greiner Bio-One, Kremsmünster, Austria). Cells were grown for 44 h in aqueous media at 37 °C under 5% CO2 atmosphere. […] A final solution of 120 μL of PBS was finally added to all corresponding wells for cell maintenance before measuring fluorescence uptake (BioTek H1MF plate reader (BioTek Instruments, Winooski, VT), APP+ excitation and emission wavelengths 436 and 500 nm). Recorded inhibitor values were first subtracted from vehicular values to quantify the respective fluorescence uptake. Data were analyzed using the dose-response-inhibitor nonlinear curve fitting model (log[inhibitor] vs response (four parameters) in Graphpad Prism 10 (Graphpad Software, La Jolla, CA).

GDNF = GDNF expression studies (ELISA, brain regions); format: in vivo, rat; settings: aticaprant 1 mg/kg s.c. before oxa-noribogaine 40 mg/kg i.p.
Experimental: One day or five days after drug administration, rats from these groups as well as non-treated controls were decapitated, brains removed and placed in a stainless-steel rat brain matrix. Coronal slices were taken and the ventral tegmental area (VTA), nucleus accumbens (NAc) and medial prefrontal cortex (mPFC) were dissected and immediately frozen on dry ice. Total protein was isolated from pulverized tissue (8–15 mg tissue per region was harvested from one subject) from these regions. GDNF contents were assayed using the BiosSensis GDNF, Rat, Rapid™ ELISA assay (Biosensis Pty Ltd, SA, Australia). Protease (Thermo Scientific, Rockford, IL), and phosphatase inhibitors (Cocktails 1 and 2, Sigma-Aldrich, St. Louis, MO) were added to the extraction buffers. Regardless of sample weight 230uL of RIPA buffer (Sigma; R0278) was added into each sample along with protease inhibitors. […] Protein concentrations were measured using the bicinchoninic acid protein assay kit (Pierce, Rockford, IL, USA) on a spectrophotometer (iD5, Molecular Devices, Sunnyvale, CA). […] In a separate cohort, we assessed the ability of the kappa antagonist aticaprant to attenuate the oxa-noribogaine induced increase in GDNF in the VTA and mPFC five days after administration. […] Data were analyzed by protein and region using one way ANOVA with Tukey’s multiple comparison test for post hoc comparison.

mice = experiment: Open field test (locomotion, sedation); format: in vivo, mouse; design: unit not given here; settings: groups not marked Female
Experimental: Mice were transferred to the testing room 30 min before the experiment to allow for acclimation. Body weight of each mouse was recorded. For experiments with antagonist, pre-treatment, the dosing and after application wait times were the same as for the tail-flick test. Mice were administered an ED50, ED80 or >ED95 doses of test compound (volume of injection 290–350 µL based on body weight). After injection, mice were returned to the home cage and allowed to rest for 30 min. Each mouse was then gently placed in the center of a clear Plexiglas arena (27.31 × 27.31 × 20.32 cm, Med Associates ENV-510) lit with dim light ( ~ 5 lux) and allowed to ambulate freely for 60 minutes. The locomotion of the mouse was tracked by infrared beams embedded along the X, Y, Z axes of the area and automatically recorded. Data was collected on Activity Monitor by Med Associates.
Statistical analysis was performed using the unpaired t-test, two-tailed with Welch’s correction to analyze total locomotion and a two-way ANOVA with Šidák’s multiple comparison test for post hoc comparison to analyze locomotion across time bins.

monkeys = settings: daily dosing prior to SA sessions (14 days); cited from earlier work
hKOR [2] = biological target: T1, hKOR; experiment: KOR [35S]GTPγS agonist assay (commercial); format: biochemical; settings: Log [Drug]
male Fisher F-344 rats = settings: preclinical assays in rats; cited from earlier work
male rats = settings: cited from earlier work

T1 sequence (P41145 whole entry): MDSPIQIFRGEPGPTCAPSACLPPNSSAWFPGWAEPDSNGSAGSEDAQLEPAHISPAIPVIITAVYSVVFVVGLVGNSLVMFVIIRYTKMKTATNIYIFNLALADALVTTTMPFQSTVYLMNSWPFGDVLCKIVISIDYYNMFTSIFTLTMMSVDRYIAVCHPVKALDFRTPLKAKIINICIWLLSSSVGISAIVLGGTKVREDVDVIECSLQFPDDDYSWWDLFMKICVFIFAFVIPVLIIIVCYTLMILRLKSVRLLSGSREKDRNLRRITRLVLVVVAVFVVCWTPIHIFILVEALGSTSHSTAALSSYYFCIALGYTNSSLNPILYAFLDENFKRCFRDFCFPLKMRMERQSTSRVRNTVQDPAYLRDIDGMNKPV
T2 sequence (P31645 whole entry): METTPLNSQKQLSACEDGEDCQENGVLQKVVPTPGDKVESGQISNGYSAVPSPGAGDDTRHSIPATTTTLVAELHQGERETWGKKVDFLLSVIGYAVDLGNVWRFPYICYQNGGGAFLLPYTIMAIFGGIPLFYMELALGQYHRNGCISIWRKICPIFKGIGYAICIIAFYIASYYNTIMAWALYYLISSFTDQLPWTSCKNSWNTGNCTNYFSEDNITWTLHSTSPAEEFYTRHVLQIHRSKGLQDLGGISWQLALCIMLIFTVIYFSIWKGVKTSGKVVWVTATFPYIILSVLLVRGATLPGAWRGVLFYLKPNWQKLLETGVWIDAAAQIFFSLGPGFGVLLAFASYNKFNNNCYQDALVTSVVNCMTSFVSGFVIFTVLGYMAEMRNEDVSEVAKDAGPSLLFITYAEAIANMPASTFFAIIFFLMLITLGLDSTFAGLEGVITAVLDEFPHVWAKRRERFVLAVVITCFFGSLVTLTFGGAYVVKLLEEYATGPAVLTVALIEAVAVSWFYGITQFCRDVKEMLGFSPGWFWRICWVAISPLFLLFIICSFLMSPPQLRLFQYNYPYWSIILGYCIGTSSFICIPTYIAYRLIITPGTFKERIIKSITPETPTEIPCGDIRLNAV

Epi-oxa-ibogamine
EC50 (hKOR [1]): > 10 µM | % effect at 100 µM (hKOR [1]): 46%

CN(C)CCCN1c2ccccc2CCc2ccccc21 [Imipramine, imipramine hydrochloride]
Emax (hSERT): 100%

Cc1cc(C)cc([C@@H]2CCCN2Cc2ccc(Oc3ccc(C(N)=O)cc3F)cc2)c1 [aticaprant]
effect of pre-treatment on oxa-noribogaine-induced GDNF increase (GDNF): the induction of GDNF was blocked in both mPFC and VTA; also recorded: prevents the increase of GDNF expression in mPFC and VTA

Oxa-ibogamine
EC50 (hKOR [1]): > 10 µM | % effect at 100 µM (hKOR [1]): 56%

Cc1cc(C)cc([C@@H]2CCCN2Cc2ccc(Oc3ccc(C(N)=O)cc3F)cc2)c1 [Aticaprant (ATI)]
Open field total locomotion, individual animals (Fig. 3h source data) (mice): 98.5549 and 70.7237 and 76.3275 and 70.7309 and 115.865 and 89.5078 and 98.6683 and 78.3135

C[C@H]1CNCCc2ccc(Cl)cc21 [Lorcaserin, lorcaserin]
suppression of cocaine SA (monkeys): the suppression effect completely dissipated as soon as the treatment ended

CC[C@H]1C[C@H]2C[C@H]3c4[nH]c5ccc(O)cc5c4CCN(C2)[C@@H]13 [NORIBO]
response, Fig. S5a concentration-response point (hKOR [2]; M = -4): 66 | response, Fig. S5a concentration-response point (hKOR [2]; M = -4.5): 55 | response, Fig. S5a concentration-response point (hKOR [2]; M = -5): 39 | response, Fig. S5a concentration-response point (hKOR [2]; M = -5.5): 20 | response, Fig. S5a concentration-response point (hKOR [2]; M = -6): 7 | response, Fig. S5a concentration-response point (hKOR [2]; M = -6.5): 2

COCC[C@H]1CC2CN3CCc4c([nH]c5ccccc45)[C@](C(=O)OC)(C2)[C@H]13 [18MC, 18-methoxycoronaridine]
effect on morphine intake (male Fisher F-344 rats): efficacy and duration of effect on morphine intake comparable to ibogaine and noribogaine

COc1ccc2c3c([nH]c2c1)CCN(C)CC3 [TBG]
effect on heroin SA (male rats): no lasting effect on heroin SA
